Our source for the IC50 and inhibition values is EP0823908B1, “PYRIDO[2,3-d]PYRIMIDINES FOR INHIBITING PROTEIN TYROSINE KINASE MEDIATED [sequence] PROLIFERATION” (Warner-Lambert Company LLC, priority 1995, dated 1996).

Type in all cases: biochemical
In experiment [1] the target is T1, mouse PDGF-β receptor tyrosine kinase (Mus musculus, UniProt P05622).
T1 construct: amplify a fragment of DNA that codes for the intracellular tyrosine kinase domain; made in house; host or cells: SF9 insect cells (baculovirus)
Description: PDGF receptor tyrosine kinase assay (32P incorporation into glutamate-tyrosine co-polymer). The note with it: for IC50: read-out: PDGFr-TK IC50; for inhibition at 50 µM: read-out: PDGFr-TK % Inhibition at 50 µM. A digest of the protocol: (§1)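 32P transfer from γ32P-ATP (50 µM ATP) to poly(Glu,Tyr) 4:1 was measured over 10 min at 25°C and counted after TCA precipitation onto filters, minus the no-enzyme background. Enzyme was baculovirus/SF9 lysate of the kinase domain, preincubated 10 min with inhibitor in Hepes pH 7.0, MnCl2, vanadate.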

Experiment [2] deals with T2, human FGF-1 (flg) receptor tyrosine kinase (Homo sapiens, UniProt P11362).
T2 construct: amplify a fragment of DNA that codes for the intracellular tyrosine kinase domain; made in house; host or cells: SF9 insect cells (baculovirus)
Description: FGF receptor tyrosine kinase assay (32P incorporation into glutamate-tyrosine co-polymer). The note with it: for IC50: read-out: FGFr-TK IC50; for inhibition at 50 µM: read-out: FGFr-TK % Inhibition at 50 µM. In outline: as §1

The next experiment addresses T3, C-src kinase (Homo sapiens, UniProt P12931).
T3 construct: made in house; host or cells: baculovirus infected insect cells
The experiment can be described thus: C-src kinase assay (poly GluTyr substrate). The settings on record: for IC50: read-out: C-src TK IC50; for inhibition at 50 µM: read-out: C-src TK % Inhibition at 50 µM. On the procedure:
V-src or C-src kinase is purified from baculovirus infected insect cell lysates using an antipeptide monoclonal antibody directed against the N-terminal 2-17 amino acids. The antibody, covalently linked to 0.65-µm latex beads, is added to a suspension of insect cell lysis buffer comprised of 150 mM NaCl, 50 mM Tris pH 7.5, 1 mM DTT, 1% NP-40, 2 mM EGTA, 1 mM sodium vanadate, 1 mM PMSF, 1 µg/mL each of leupeptin, pepstatin, and aprotinin. […] At the end of the lysate incubation, the beads are rinsed 3 times in lysis buffer, resuspended in lysis buffer containing 10% glycerol, and frozen. These latex beads are thawed, rinsed 3 times in assay buffer which is comprised of 40 mM tris pH 7.5, 5 mM MgCl2, and suspended in the same buffer. In a Millipore 96-well plate with a 0.65 µm polyvinylidine membrane bottom are added the reaction components: 10-µL V-src or C-src beads, 10 µL of 2.5 mg/mL poly GluTyr substrate, 5 µM ATP containing 0.2 µCi labeled ^32P-ATP, 5µL DMSO containing inhibitors or as a solvent control, and buffer to make the final volume 125 µL. The reaction is started at room temperature by addition of the ATP and quenched 10 minutes later by the addition of 125 µL of 30% TCA, 0.1 M sodium pyrophosphate for 5 minutes on ice. […] The filters are punched, counted in a liquid scintillation counter, and the data examined for inhibitory activity in comparison to a known inhibitor such as erbstatin.

Experiment [3] deals with T4, Human EGF receptor tyrosine kinase (Homo sapiens, UniProt P00533).
T4 construct: Human EGF receptor tyrosine kinase was isolated from A431 epidermoid carcinoma cells; endogenous in cells; host or cells: A431 epidermoid carcinoma cells
The experiment can be described thus: EGF receptor tyrosine kinase enzyme assay (substrate peptide phosphorylation). The note with it: for IC50: read-out: EGF-FL IC50; for inhibition at 50 µM: read-out: EGF-FL % Inhibition at 50 µM. On the procedure:
Human EGF receptor tyrosine kinase was isolated from A431 epidermoid carcinoma cells by the following methods. Cells were grown in roller bottles in 50% Dulbecco's Modified Eagle medium and 50% HAM F-12 nutrient media (Gibco) containing 10% fetal calf serum. Approximately 10^9 cells were lysed in two volumes of buffer containing 20 mM 2-(4N-[2-hydroxymethyl]-piperazin-1-yl)ethanesulfonic acid, pH 7.4, 5 mM ethylene glycol bis(2-aminoethyl ether) N,N,N',N'-tetraacetic acid, 1% Triton X-100, 10% glycerol, 0.1 mM sodium orthovanadate, 5 mM sodium fluoride, 4 mM pyrophosphate, 4 mM benzamide, 1 mM dithiothreitol, 80 µg/mL aprotinin, 40 µg/mL leupeptin, and 1 mM phenylmethylsulfonyl fluoride. […] Contaminating proteins were washed from the resin with 1 M NaCl in equilibration buffer, and the enzyme was eluted with 0.5 M N-acetyl-1-D-glucosamine in equilibration buffer.
The reaction was terminated by the addition of 2 mL of 75 mM phosphoric acid and passed through a 2.5-cm phosphocellulose filter disc to bind the peptide. The filter was washed 5 times with 75 mM phosphoric acid and placed in a vial along with 5 mL of scintillation fluid (Ready gel Heckman).

T4 sequence (P00533 25-1210): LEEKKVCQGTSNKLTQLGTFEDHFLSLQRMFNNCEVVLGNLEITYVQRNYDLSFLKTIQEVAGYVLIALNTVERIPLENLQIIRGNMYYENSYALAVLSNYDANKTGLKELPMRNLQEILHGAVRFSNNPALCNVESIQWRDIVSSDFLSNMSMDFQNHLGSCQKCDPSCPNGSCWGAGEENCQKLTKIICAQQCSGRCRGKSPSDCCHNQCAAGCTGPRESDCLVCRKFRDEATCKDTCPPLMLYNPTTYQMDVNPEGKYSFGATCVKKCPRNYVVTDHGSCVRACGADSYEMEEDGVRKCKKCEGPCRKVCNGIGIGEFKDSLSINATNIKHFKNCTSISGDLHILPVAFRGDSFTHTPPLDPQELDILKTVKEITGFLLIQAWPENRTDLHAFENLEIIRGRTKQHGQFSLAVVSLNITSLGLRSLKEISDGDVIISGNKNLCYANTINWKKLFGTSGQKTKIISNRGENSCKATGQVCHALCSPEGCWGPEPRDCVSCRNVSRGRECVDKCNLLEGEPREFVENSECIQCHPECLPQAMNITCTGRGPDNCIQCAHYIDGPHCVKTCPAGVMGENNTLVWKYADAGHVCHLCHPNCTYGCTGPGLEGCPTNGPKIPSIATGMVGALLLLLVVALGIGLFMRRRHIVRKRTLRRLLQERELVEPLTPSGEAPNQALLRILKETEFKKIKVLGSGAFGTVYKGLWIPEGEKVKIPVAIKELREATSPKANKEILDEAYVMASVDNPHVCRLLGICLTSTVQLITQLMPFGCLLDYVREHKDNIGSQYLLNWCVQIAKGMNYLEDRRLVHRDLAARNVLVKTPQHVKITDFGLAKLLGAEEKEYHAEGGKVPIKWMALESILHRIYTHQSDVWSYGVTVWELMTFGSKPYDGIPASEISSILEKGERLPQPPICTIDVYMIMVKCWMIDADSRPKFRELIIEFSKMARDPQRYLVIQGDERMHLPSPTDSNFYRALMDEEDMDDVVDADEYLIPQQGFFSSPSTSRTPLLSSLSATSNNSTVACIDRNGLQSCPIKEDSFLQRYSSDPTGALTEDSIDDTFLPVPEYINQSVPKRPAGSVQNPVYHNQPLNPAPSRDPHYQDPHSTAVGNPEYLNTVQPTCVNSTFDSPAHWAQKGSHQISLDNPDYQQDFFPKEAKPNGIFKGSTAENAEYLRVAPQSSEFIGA
T1 sequence (P05622 599-961 limits assumed): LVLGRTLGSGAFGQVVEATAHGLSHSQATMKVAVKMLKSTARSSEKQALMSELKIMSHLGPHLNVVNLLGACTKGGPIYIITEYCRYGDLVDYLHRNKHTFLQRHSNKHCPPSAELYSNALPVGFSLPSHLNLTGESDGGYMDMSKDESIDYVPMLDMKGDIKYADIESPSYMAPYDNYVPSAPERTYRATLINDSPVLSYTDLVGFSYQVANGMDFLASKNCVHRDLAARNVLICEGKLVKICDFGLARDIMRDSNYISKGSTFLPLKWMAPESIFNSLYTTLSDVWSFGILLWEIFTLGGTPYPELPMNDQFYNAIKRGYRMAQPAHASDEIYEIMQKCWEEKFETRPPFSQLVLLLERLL
T3 sequence (P12931 whole entry): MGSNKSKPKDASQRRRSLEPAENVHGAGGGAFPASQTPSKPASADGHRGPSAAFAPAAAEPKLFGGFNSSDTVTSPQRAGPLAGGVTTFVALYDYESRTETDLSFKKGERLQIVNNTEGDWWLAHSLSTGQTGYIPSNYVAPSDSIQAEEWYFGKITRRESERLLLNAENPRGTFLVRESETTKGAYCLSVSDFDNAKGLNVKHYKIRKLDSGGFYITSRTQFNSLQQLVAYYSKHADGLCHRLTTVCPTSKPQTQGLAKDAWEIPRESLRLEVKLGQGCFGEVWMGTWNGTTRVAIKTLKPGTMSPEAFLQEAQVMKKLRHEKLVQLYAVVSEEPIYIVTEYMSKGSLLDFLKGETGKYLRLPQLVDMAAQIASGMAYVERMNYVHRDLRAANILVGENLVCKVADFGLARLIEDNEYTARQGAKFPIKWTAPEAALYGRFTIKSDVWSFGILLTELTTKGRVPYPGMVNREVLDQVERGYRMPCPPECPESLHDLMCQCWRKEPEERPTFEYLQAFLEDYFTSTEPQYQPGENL
T2 sequence (P11362 478-767 limits assumed): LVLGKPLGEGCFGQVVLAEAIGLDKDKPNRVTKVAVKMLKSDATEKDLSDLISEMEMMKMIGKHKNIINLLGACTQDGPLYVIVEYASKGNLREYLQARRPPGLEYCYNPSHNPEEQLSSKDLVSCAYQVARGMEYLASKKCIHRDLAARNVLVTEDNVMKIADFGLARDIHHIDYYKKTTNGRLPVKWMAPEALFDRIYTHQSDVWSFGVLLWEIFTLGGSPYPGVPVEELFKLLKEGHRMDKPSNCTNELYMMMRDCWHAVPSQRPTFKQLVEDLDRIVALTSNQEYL

On to `Cn1c(=O)c(-c2c(Cl)cccc2Cl)cc2cnc(NCCCCCC(=O)O)nc21` [Example 62, 6-[6-(2,6-Dichlorophenyl)-8-methyl-7-oxo-7,8-dihydro-pyrido[2,3-d]pyrimidin-2-ylamino]-hexanoic acid], for which the IC50 in experiment [1] amounted to 736 nM; in experiment [2], 453 nM; on C-src kinase, 365 nM; in experiment [3] it was 1000 nM.
For the compound `Cn1c(=O)c(-c2c(Cl)cccc2Cl)cc2cnc(NCc3ccccn3)nc21` [Example 49, 6-(2,6-Dichlorophenyl)-8-methyl-2-[(pyridin-2-ylmethyl)-amino]-8H-pyrido[2,3-d]pyrimidin-7-one], the IC50 in experiment [1] came out at 4650 nM; in experiment [2], 4010 nM; on C-src kinase it was 813 nM. The inhibition at 50 µM in experiment [3] was 61%.
Turning to `COC(=O)Cc1ccc(Nc2ncc3cc(-c4c(Cl)cccc4Cl)c(=O)n(C)c3n2)cc1` [Example 84, {4-[6-(2,6-Dichlorophenyl)-8-methyl-7-oxo-7,8-dihydro-pyrido[2,3-d]pyrimidin-2-ylamino]phenyl]-acetic acid, methyl ester], the IC50 was found to be 390 nM in experiment [1], 250 nM in experiment [2], 23 nM on C-src kinase and 630 nM in experiment [3].
For the compound `COc1ccc(Cn2c(=O)c(-c3c(Cl)cccc3Cl)cc3cnc(N)nc32)cc1` [Example 112, 2-Amino-6-(2,6-dichlorophenyl)-8-(4-methoxyhenzyl)-8H-pyrino[2,3-d]pyrimidin-7-one], the IC50 in experiment [1] came to 11200 nM; in experiment [2] it was 9100 nM; on C-src kinase, 1160 nM. Besides, the inhibition at 50 µM in experiment [3] turned out to be 19%.
Regarding `CCCCn1c(=O)c(-c2c(Cl)cccc2Cl)cc2cnc(N)nc21` [Example 32, 2-Amino-8-butyl-6-(2,6-dichlorophenyl)-8H-pyrido[2,3-d]pyrimidin-7-one], the IC50 in experiment [1] is 875 nM; in experiment [2], 737 nM. The inhibition at 50 µM on C-src kinase was determined as 33%; in experiment [3], 100%.
As to `CC(C)Nc1ncc2cc(-c3c(Cl)cccc3Cl)c(=O)n(C)c2n1` [Example 44, 6-(2,6-Dichlorophenyl)-2-isopropylamino-8-methyl-8H-pyrido[2,3-d]pyrimidin-7-one], the figures for the IC50 (in experiment [1]; in experiment [2]; at C-src kinase) were 2090 nM, 880 nM and 1570 nM, respectively. Also, the inhibition at 50 µM in experiment [3] worked out at 64%.
Turning to `CCn1c(=O)c(-c2c(Cl)cccc2Cl)cc2cnc(Nc3ccc(OC)cc3)nc21` [Example 74, 6-(2,6-Dichlorophenyl)-8-ethyl-2-(4-methoxyphenylamino) -8H-pyrido[2,3-d]pyrimidin-7-one], the IC50 in experiment [1] stood at 760 nM; in experiment [2], 277 nM; at C-src kinase, 79 nM; in experiment [3], 130 nM.
Consider `CCn1c(=O)c(-c2c(Cl)cccc2Cl)cc2cnc(Nc3cc(OC)c(OC)c(OC)c3)nc21` [Example 78, 6-(2,6-Dichlorophenyl)-8-ethyl-2-(3,4,5-trimethoxyphenylamino)-8H-pyrido[2,3-d]pyrimidin-7-one], for which the figures for the IC50 in experiment [1], in experiment [2] and in experiment [3] were 1690 nM, 143 nM and 97 nM, respectively. In addition, the inhibition at 50 µM at C-src kinase came to 46%.
Turning to `CN(C)c1ncc2cc(-c3c(Cl)cccc3Cl)c(=O)n(C)c2n1` [Example 41, 6-(2,6-Dichlorophenyl)-2-dimethylamino-8-methyl-8H-pyrido[2,3-d]pyrimidin-7-one], the inhibition at 50 µM worked out at 16% in experiment [1], 0% in experiment [2], 12% on C-src kinase and 52% in experiment [3].
For the compound `Cn1c(=O)c(-c2c(Cl)cccc2Cl)cc2cnc(NCCc3ccccn3)nc21` [Example 51, 6-(2,6-Dichlorophenyl)-8-methyl-2-(2-pyridin-2-yl-ethylamino)-8H-pyrido[2,3-d]pyrimidin-7-one], the IC50 amounted to 7160 nM in experiment [1], 8030 nM in experiment [2] and 1570 nM on C-src kinase. Further, the inhibition at 50 µM in experiment [3] was 55%.
`Nc1ncc2cc(-c3c(Cl)cccc3Cl)c(=O)n(Cc3cccc(Br)c3)c2n1` [Example 109, 2-Amino-8-(3-bromobenzyl)-6-(2,6-dichlorophenyl)-8H-pyrido[2,3-d]pyrimidin-7-one]: the IC50 came to 9290 nM in experiment [1], 3370 nM in experiment [2], 240 nM at C-src kinase and 62 nM in experiment [3].
Taken in the same sequence, the figures for `CN(C)CCCn1c(=O)c(-c2c(Cl)cccc2Cl)cc2cnc(N)nc21` [Example 34, 2-Amino-6-(2,6-dichlorophenyl)-8-(3-dimethylaminopropyl)-8H-pyrido[2,3-d]pyrimidin-7-one] were 2730 nM, 1200 nM, 37 nM and 2900 nM.
Consider `CCOc1ccc(Nc2ncc3cc(-c4c(Cl)cccc4Cl)c(=O)n(CC)c3n2)cc1` [Example 76, 6-(2,6-Dichlorophenyl)-2-(4-ethoxyphenylamino)-8-ethyl-8H-pyrido[2,3-d]pyrimidin-7-one], for which the IC50 stood at 2380 nM in experiment [1], 466 nM in experiment [2] and 300 nM in experiment [3]. The inhibition at 50 µM at C-src kinase is 33%.
Taken in the same sequence, the figures for `CCn1c(=O)c(-c2c(Cl)cccc2Cl)cc2cnc(Nc3ccc(O)cc3)nc21` [Example 75, 6-(2,6-Dichlorophenyl)-8-ethyl-2-(4-hydroxyphenylamino)-8H-pyrido[2,3-d]pyrimidin-7-one] were 353 nM, 141 nM, 21 nM and 0%.
For the compound `CCn1c(=O)c(-c2c(Cl)cccc2Cl)cc2cnc(Nc3ccc(OC)c(OC)c3)nc21` [Example 77, 6-(2,6-Dichlorophenyl)-2-(3,4-dimethoxyphenylamino)-8-ethyl-8H-pyrido[2,3-d]pyrimidin-7-one], the IC50 was 1110 nM in experiment [1], 124 nM in experiment [2], 19 nM on C-src kinase and 94 nM in experiment [3].
Consider `Cn1c(=O)c(-c2c(Cl)cccc2Cl)cc2cnc([S+](C)[O-])nc21` (stereo not shown) [Example 53, 6-(2,6-Dichlorophenyl)-2-methanesulfinyl-8-methyl-8H-pyrido[2,3-d]pyrimidin-7-one], for which the values for the inhibition at 50 µM (in experiment [1]; in experiment [2]; on C-src kinase) were 20%, 45% and 15%, respectively. Moreover, the IC50 in experiment [3] was 850 nM.
On to `CCCCNc1ncc2cc(-c3c(Cl)cccc3Cl)c(=O)n(C)c2n1` [Example 45, 2-Butylamino-6-(2,6-dichlorophenyl)-8-methyl-8H-pyrido[2,3-d]pyrimidin-7-one], for which the IC50 in experiment [1] was found to be 5680 nM; in experiment [2], 4040 nM; at C-src kinase, 2390 nM. Also, in experiment [3], the inhibition at 50 µM was determined as 85%.
With `Cc1cccc(C)c1-c1cc2cnc(N)nc2n(C)c1=O` [Example 13, 2-Amino-6-(2,6-dimethylphenyl)-8-methyl-pyrido[2,3-d]-pyrimidin-7(8H)-one], the IC50 in experiment [1] stood at 2560 nM; in experiment [2], 6200 nM; at C-src kinase, 290 nM. The inhibition at 50 µM in experiment [3] amounted to 88%.
Taken in the same sequence, the figures for `COc1ccc(CCNc2ncc3cc(-c4c(Cl)cccc4Cl)c(=O)n(C)c3n2)cc1OC` [Example 48, 6-(2,6-Dichlorophenyl)-2-[2-(3,4-dimethoxyphenyl)-ethylamino]-8-methyl-8H-pyrido[2,3-d]pyrimidin-7-one] were 17900 nM, 19600 nM, 2540 nM and 64%.

In general, IC50 refers to the point on the concentration scale where inhibition reaches its midpoint. The inhibition is the percentage by which the read-out fell short of the control.
